One data set has as its system IL13. The data set can be described thus: OVA model: IL13 ELISA in lung protein extracts. Format: in vivo, BALB/c mice. The conditions noted are these: FIG. 3. The protocol:
In order to study modulation of airway inflammation, BALB/c mice of about 6 to about 8 weeks old are sensitized by intraperitoneal injection of about 10 μg ovalbumin (OVA) (Sigma Aldrich, Schnelldorf, Germany) emulsified in aluminum hydroxide (AlumInject; Perbio, Erembodegem, Belgium) on days 0 (DO) and 7 (D7). Mice are subsequently exposed to allergens by daily inhalation of an aerosol of OVA about 1%, for about 30 minutes, generated by ultrasonic nebulizer (Devilbiss 2000), from day 21 to day 25. Mice are subjected to about 50 μl intra-nasal instillations from day 18 to day 24 and are sacrificed on day 26, as previously reported by Cataldo et al.: Am. J. Pathol. 161 (2):491-498 (2002), which is incorporated herein in its entirety by reference. Placebo mice are intra-nasal injected with PBS. As stated above, the left lung is excised and frozen immediately at about −80° C. and then disrupted in liquid N2 by using a Mikro-Dismembrator (Braun Biotech International, Gmbh Melsungen, Germany) to form a homogenized powder. […] IL13 levels are measured in non-pooled lung protein samples by ELISA (duoset kit, R&D Systems, Abingdon, United Kingdom) following manufacturer's instructions. […]
A general note: An ELISA detects its analyte on a solid surface through an enzyme-linked reagent.

For data set [1], the system named is Cigarette smoke-exposed mice. The data set can be described thus: Cigarette smoke exposure model: BALF neutrophils. The conditions noted are these: budesonide alone about 500 μg/ml. The data set is classed as in vivo, C57BL/6 mice. As for the experimental part:
BALF supernatant is collected for protein assessment while cells are used for differential cell counts. Differential cell counts based on morphologic criteria are carried out on cytocentrifuged preparations after staining with haematoxylin-eosin (Diff-Quick, Dade, Belgium). Cells are recovered by gentle manual aspiration. After centrifugation of bronchoalveolar fluid (BALF) (about 1200 rpm for about 10 minutes, at about 4° C.), the supernatant is frozen at about −80° C. for protein assessment and the cell pellet is re-suspended in about 1 ml PBS-EDTA about 0.05 mM. The differential cell counts are performed on cytocentrifuged preparations (Cytospin) after staining with Diff-Quick (Dade, Belgium).
C57BL/6 mice are exposed to 10 cigarettes 5 days per week during 6 weeks using the Inexpose® system (Scireq, Montreal, Canada). Mice are treated by an about 50 μl intra-nasal injection 5 days per week during 6 weeks. Mice are sacrificed on day 43. Placebo mices also called sham exposed mices are injected with PBS.
Bronchoalveolar lavage fluid (BALF) analysis is the same as previously described in Example 3 (model of airway obstruction and inflammation).
Results of inflammatory cells in bronchoalveolar lavage fluid number were expressed as mean +/− SEM and the comparison between the groups is performed using Mann-Whitney test. Tests are performed using GraphPad Prism 5. […]

A short description of data set [2]: Stability of betamethasone dipropionate under autoclave. Format: physicochemical.

As for `CCCC1O[C@@H]2C[C@H]3[C@@H]4CCC5=CC(=O)C=C[C@]5(C)[C@H]4[C@@H](O)C[C@]3(C)[C@]2(C(=O)CO)O1` (stereo partly drawn) [budesonide, 16,17-(butylidenebis(oxy))-11,21-dihydroxy-, (11-β3,16-a)-pregna-1,4-diene-3,20-dione], the “IL13 levels in lung tissue after allergen exposure” value in the data set with IL13 (budesonide about 100 μg/ml compared to budesonide about 100 μg/ml—cyclodextrin about 10 mM) was “higher IL13 levels”; in the data set on IL13 (budesonide about 250 μg/ml compared to complex budesonide about 250 μg/ml—cyclodextrin about 10 mM), “higher levels of IL13”. The “inflammation level in BALF of treated mice” value in data set [1] is “significantly not efficient enough”. Besides, the “Percentage of neutrophils (+/−SEM) in BALF, Neutrophils (%)” value in data set [1] (about 50 μl intra-nasal 5 days per week during 6 weeks) is on record as “about 9.64%”.

As for `CCC(=O)OCC(=O)[C@@]1(OC(=O)CC)[C@@H](C)C[C@H]2[C@@H]3CCC4=CC(=O)C=C[C@]4(C)[C@@]3(F)[C@@H](O)C[C@@]21C` [Betamethasone Dipropionate], the stability under autoclave result in data set [2] is “degrades under autoclave”.

(Values after US9993487B2 (Universite de Liege, priority 2014, dated 2018).)
